tested on: HIV-IIIb; assay: Test A: Antiviral Assays in MT4 Cells; type: cell-based; settings: Human immunodeficiency virus 1, IIIB, MT4, 120 h, Table I; MT-4 cells infected with HIV-IIIb, 5 days incubation, CellTiter-Glo readout
Experimental: The antiviral properties of a compound disclosed herein may be determined using Test A described below.
Test A: Antiviral Assays in MT4 Cells
For the antiviral assay utilizing MT-4 cells, 0.4 μL of […] test concentration of 3-fold serially diluted compound in DMSO was added to 40 μL of cell growth medium (RPMI 1640, 10% FBS, 1% penicillin/Streptomycin, 1% L-Glutamine, 1% HEPES) in each well of 384-well assay plates (10 concentrations) in quadruplicate.
1 mL aliquots of 2×10e6 MT-4 cells are pre-infected for 1 and 3 hrs respectively, @ 37° C. with 25 μL (MT4) or of either cell growth medium (mock-infected) or a fresh 1:250 dilution of an HIV-IIIb concentrated ABI stock (0.004 m.o.i. for MT4 cells). Infected and uninfected cells are diluted in cell growth medium and 35 μL of 2000 (for MT4) cells is added to each well of the assay plates.
Assay plates were then incubated in a 37° C. incubator. After 5 days of incubation, 25 μl of 2× concentrated CellTiter-Glo™ Reagent (catalog # G7573, Promega Biosciences, Inc., Madison, Wis.) was added to each well of the assay plate. Cell lysis was carried out by incubating at room temperature for 2-3 min and then chemiluminescence was read using the Envision reader (PerkinElmer).

SMILES | EC50 [nM]
Cc1cc2ccc(C#CC(C)(O)c3ccccn3)cc2c(-c2ccc(Cl)cc2)c1[C@H](OC(C)(C)C)C(=O)O (stereo partly drawn) [Example 10, (2S)-2-tert-Butoxy-2-(1-(4-chlorophenyl)-7-(3-hydroxy-3-(pyridin-2-yl)but-1-ynyl)-3-methylnaphthalen-2-yl)acetic acid] | 62
Cc1nc(C)c(C(C)(O)C#Cc2ccc3cc(C)c([C@H](OC(C)(C)C)C(=O)O)c(-c4ccc(Cl)cc4)c3c2)s1 (stereo partly drawn) [Example 13, (2S)-2-tert-Butoxy-2-(1-(4-chlorophenyl)-7-(3-(2,4-dimethylthiazol-5-yl)-3-hydroxybut-1-ynyl)-3-methylnaphthalen-2-yl)acetic acid] | 65
Cc1cc2ccc(C#CC(C)(O)c3ccc(F)cc3)cc2c(-c2ccc(Cl)cc2)c1[C@H](OC(C)(C)C)C(=O)O (stereo partly drawn) [Example 8, (2S)-2-tert-butoxy-2-(1-(4-chlorophenyl)-7-(3-(4-fluorophenyl)-3-hydroxybut-1-ynyl)-3-methylnaphthalen-2-yl)acetic acid] | 120
Cc1cc2ccc(C#CC(C)(O)c3ccccc3)cc2c(-c2ccc(Cl)cc2)c1[C@H](OC(C)(C)C)C(=O)O (stereo in doubt) [Example 14, (S)-2-tert-butoxy-2-(1-(4-chlorophenyl)-7-((R)-3-hydroxy-3-phenylbut-1-ynyl)-3-methylnaphthalen-2-yl)acetic acid] | 56
Cc1ccc2c(-c3ccc4c5c(ccnc35)CCO4)c([C@H](OC(C)(C)C)C(=O)O)c(C)cc2c1 (atropisomer, axis not shown) [Example 16, (S)-2-tert-butoxy-2-((S)-1-(2,3-dihydropyrano[4,3,2-de]quinolin-7-yl)-3,6-dimethylnaphthalen-2-yl)acetic acid] | 1740

same assay, conditions: Human immunodeficiency virus 1, IIIB, MT4, 120 h, Table II; MT-4 cells infected with HIV-IIIb, 5 days incubation, CellTiter-Glo readout

SMILES | EC50 [nM]
Cc1ccc2c(-c3ccc4c5c(ccnc35)CCO4)c(C(OC(C)(C)CF)C(=O)O)c(C)cc2c1 (centres unmarked) [Example 65] | 12.1
Cc1ccc2c(-c3ccc4c5c(ccnc35)CCO4)c([C@@H](OC(C)(C)CF)C(=O)O)c(C)cc2c1 (atropisomer, axis not shown) [Example 63] | 1680
CC(C)(C)O[C@H](C(=O)O)c1c(-c2ccc3c4c(ccnc24)CCO3)c2ccccc2c2[nH]ncc12 (atropisomer, axis not shown) [Example 90] | 366
CC(=O)Nc1c(C)c([C@H](OC(C)(C)C)C(=O)O)c(-c2ccc3c4c(ccnc24)CCO3)c2ccccc12 (atropisomer, axis not shown) [Example 89] | 218
Cc1cc2c(C(F)F)c(C)ccc2c(-c2ccc3c4c(ccnc24)CCO3)c1[C@H](OC(C)(C)C)C(=O)O (atropisomer, axis not shown) [Example 70] | 11.6
Cc1cc2ccccc2c(-c2ccc3c4c(ccnc24)CCO3)c1[C@@H](OC(C)(C)CF)C(=O)O (atropisomer, axis not shown) [Example 101] | 4740
Cc1cc2ccccc2c(-c2ccc3c4c(ccnc24)CCO3)c1[C@H](OC(C)(CF)CF)C(=O)O (atropisomer, axis not shown) [Example 105] | 15.4
Cc1cc2ccccc2c(-c2ccc3c4c(ccnc24)CCO3)c1C(OC(C)(CF)CF)C(=O)O (centres unmarked) [Example 106] | 40.7
Cc1cc2ccccc2c(-c2ccc3c4c(ccnc24)CCO3)c1[C@H](OC(C)(C)CCCCS(N)(=O)=O)C(=O)O (atropisomer, axis not shown) [Example 95] | 386

Continued, values first:

EC50 [nM] | SMILES
11.7 | Cc1cc2c(N)cccc2c(-c2ccc3c4c(ccnc24)CCO3)c1[C@H](OC(C)(C)C)C(=O)O (atropisomer, axis not shown) [Example 91]
161 | Cc1cc2ccccc2c(-c2ccc3c4c(ccnc24)CCO3)c1C(OC(C)(C)CCl)C(=O)O (centres unmarked) [Example 100]
3490 | Cc1cc2ccc(-c3cccc(-c4ccc5c(cnn5C)c4)c3)cc2c(-c2ccc(Cl)cc2)c1[C@H](OC(C)(C)C)C(=O)O [Example 88]
16.8 | Cc1cc2cc(-c3cnc(N4CCOCC4)nc3)ccc2c(-c2ccc3c4c(ccnc24)CCO3)c1[C@H](OC(C)(C)C)C(=O)O (atropisomer, axis not shown) [Example 52]
19400 | Cc1cc2ccccc2c(-c2ccc3c4c(ccnc24)CCO3)c1[C@@H](OC(C)(C)CCl)C(=O)O (atropisomer, axis not shown) [Example 98]
7.53 | Cc1cc2cc(-c3cnc(N)nc3)ccc2c(-c2ccc3c4c(ccnc24)CCO3)c1[C@H](OC(C)(C)C)C(=O)O (atropisomer, axis not shown) [Example 55]
59.2 | COc1ncc(-c2ccc3c(-c4ccc5c6c(ccnc46)CCO5)c([C@H](OC(C)(C)C)C(=O)O)c(C)cc3c2)c(O)n1 (atropisomer, axis not shown) [Example 47]
40.5 | Cc1cc2ccccc2c(-c2ccc3c4c(ccnc24)CCO3)c1[C@H](OC(C)(C)CCl)C(=O)O (atropisomer, axis not shown) [Example 99]
20.5 | Cc1cc2cc(-c3cnc(N4CCCC4)nc3)ccc2c(-c2ccc3c4c(ccnc24)CCO3)c1[C@H](OC(C)(C)C)C(=O)O (atropisomer, axis not shown) [Example 51]

same assay, conditions: Table I; MT-4 cells infected with HIV-IIIb, 5 days incubation, CellTiter-Glo readout

EC50 [nM] | SMILES
84 | CCOCC(C)(C)O[C@H](C(=O)O)c1c(C)cc2ccccc2c1-c1ccc2c3c(ccnc13)CCO2 (atropisomer, axis not shown) [Example 27, (2S)-2-((R)-1-(2,3-Dihydropyrano[4,3,2-de]quinolin-7-yl)-3-methylnaphthalen-2-yl)-2-(1-ethoxy-2-methylpropan-2-yloxy)acetic acid]
1230 | CCOCC(C)(C)O[C@H](C(=O)O)c1c(C)cc2ccccc2c1-c1ccc2c3c(ccnc13)CCO2 (atropisomer, axis not shown) [Example 28, (2S)-2-((S)-1-(2,3-Dihydropyrano[4,3,2-de]quinolin-7-yl)-3-methylnaphthalen-2-yl)-2-(1-ethoxy-2-methylpropan-2-yloxy)acetic acid]

same assay, conditions: Table II; MT-4 cells infected with HIV-IIIb, 5 days incubation, CellTiter-Glo readout

SMILES | EC50 [nM]
Cc1c([C@H](OC(C)(C)C)C(=O)O)c(-c2ccc3c4c(ccnc24)CCO3)c2ccccc2c1C(F)F (atropisomer, axis not shown) [Example 86] | 131
Cc1cc2ccccc2c(-c2ccc3c4c(ccnc24)CCO3)c1[C@H](OC(C)(C)CCF)C(=O)O (atropisomer, axis not shown) [Example 96] | 6420
CC(C)(C)O[C@H](C(=O)O)c1c(-c2ccc3c4c(ccnc24)CCO3)c2ccccc2c2occc12 (atropisomer, axis not shown) [Example 76] | 117

Results, then the compound that gave them:

EC50 [nM] | SMILES
11.3 | Cc1cc2cccc(F)c2c(-c2ccc3c4c(ccnc24)CCO3)c1[C@H](OC(C)(C)C)C(=O)O (atropisomer, axis not shown) [Example 69]
55.6 | Cc1cc2cc(-c3ccc4c(cnn4C)c3)ccc2c(-c2ccc3c4c(ccnc24)CCO3)c1[C@H](OC(C)(C)C)C(=O)O (atropisomer, axis not shown) [Example 44]
7020 | Cc1cc2c(C)c(-c3cnc(N(C)C)nc3)ccc2c(-c2ccc3c4c(ccnc24)CCO3)c1[C@H](OC(C)(C)C)C(=O)O (atropisomer, axis not shown) [Example 72]
53200 | Cc1cc2cc(C#Cc3cncnc3)ccc2c(-c2ccc3c4c(ccnc24)CCO3)c1[C@H](OC(C)(C)C)C(=O)O (atropisomer, axis not shown) [Example 42]
354 | Cc1cc2cc(-c3ccc4c(cnn4C)c3)ccc2c(-c2ccc3c4c(ccnc24)CCO3)c1[C@H](OC(C)(C)C)C(=O)O (atropisomer, axis not shown) [Example 45]
6.95 | Cc1cc2c(C)c(-c3cnc(N)nc3)ccc2c(-c2ccc3c4c(ccnc24)CCO3)c1[C@H](OC(C)(C)C)C(=O)O (atropisomer, axis not shown) [Example 75]
2940 | Cc1cc2cccc(F)c2c(-c2ccc3c4c(ccnc24)CCO3)c1[C@H](OC(C)(C)C)C(=O)O (atropisomer, axis not shown) [Example 68]
121 | Cc1cc2cc(C#Cc3cncnc3)ccc2c(-c2ccc3c4c(ccnc24)CCO3)c1[C@H](OC(C)(C)C)C(=O)O (atropisomer, axis not shown) [Example 43]
37800 | Cc1cc2c(C)c(-c3cnc(N)nc3)ccc2c(-c2ccc3c4c(ccnc24)CCO3)c1[C@H](OC(C)(C)C)C(=O)O [Example 74]
7760 | Cc1cc2cc(-c3c(C)ncnc3C)ccc2c(-c2ccc3c4c(ccnc24)CCO3)c1[C@H](OC(C)(C)C)C(=O)O (atropisomer, axis not shown) [Example 58]
8680 | Cc1cc2cc(-c3cnc(-c4cncnc4)nc3)ccc2c(-c2ccc3c4c(ccnc24)CCO3)c1[C@H](OC(C)(C)C)C(=O)O (atropisomer, axis not shown) [Example 39]
542 | Cc1cc2cc(-c3ccc(-c4cncnc4)cc3)ccc2c(-c2ccc3c4c(ccnc24)CCO3)c1[C@H](OC(C)(C)C)C(=O)O (atropisomer, axis not shown) [Example 40]
8.95 | Cc1cc2c(C)c(-c3cnc(N(C)C)nc3)ccc2c(-c2ccc3c4c(ccnc24)CCO3)c1[C@H](OC(C)(C)C)C(=O)O (atropisomer, axis not shown) [Example 73]

From patent publication US9284323B2, “Naphthalene acetic acid derivatives against HIV infection” (Gilead Sciences, Inc., priority 2012, dated 2016)
